Data taken from ChEMBL document CHEMBL3880441, “Irreversible covalent inhibitors of the GTPASE K-RAS G12C” (2014).

Each compound was assayed on GTPase KRas (Homo sapiens), P01116 [G12C] (assay: Binding affinity to His-tagged KRAS (1 to 169 residues) G12C mutant (unknown origin) at 10 to 100 uM after 24 hrs by mass spectrometric method).

Activity | SMILES
0.5 to 5% | C=CC(=O)NC[C@H]1C[C@@H]2O[C@H](COCc3ccccc3)[C@@H](OCc3ccccc3)[C@@H]2O1
10 to 15% | C=CS(=O)(=O)NCCOc1cccc2ccccc12
5 to 10% | C=Cc1cccc(S(=O)(=O)NC[C@H]2C[C@@H]3O[C@H](CO)[C@@H](OCc4ccccc4)[C@@H]3O2)c1
5 to 10% | C=CS(=O)(=O)NCCNc1ccc2ccccc2c1
10 to 15% | C=Cc1ccc(S(=O)(=O)NC[C@H]2C[C@@H]3O[C@H](CO)[C@@H](OCc4ccccc4)[C@@H]3O2)cc1
10 to 15% | C=Cc1ccc(S(=O)(=O)NCCOc2ccc3ccccc3c2)cc1
10 to 15% | C=Cc1ccccc1S(=O)(=O)NC[C@H]1C[C@@H]2O[C@H](COCc3ccccc3)[C@@H](OCc3ccccc3)[C@@H]2O1
10 to 15% | C=CS(=O)(=O)NCCOc1ccc2ccccc2c1
10 to 15% | C=CS(=O)(=O)NCCNc1cccc2ccccc12
10 to 15% | C=Cc1ccc(S(=O)(=O)NCCNc2cccc3ccccc23)cc1
10 to 15% | C=Cc1ccccc1S(=O)(=O)NCCNc1ccc2ccccc2c1
> 15% | C=Cc1ccccc1S(=O)(=O)NC[C@@H]1C[C@@H]2O[C@H](CO)[C@@H](OCc3ccccc3)[C@@H]2O1
10 to 15% | C=Cc1ccccc1S(=O)(=O)NC[C@H]1C[C@@H]2O[C@H](CO)[C@@H](OCc3ccccc3)[C@@H]2O1
5 to 10% | C=Cc1ccccc1S(=O)(=O)NCCOc1ccc2ccccc2c1
0.5 to 5% | C=CC(=O)NC[C@H]1C[C@@H]2O[C@H](CO)[C@@H](OCc3ccccc3)[C@@H]2O1
> 15% | C=Cc1cccc(S(=O)(=O)NC[C@@H]2C[C@@H]3O[C@H](COCc4ccccc4)[C@@H](OCc4ccccc4)[C@@H]3O2)c1

Activity | SMILES
5 to 10% | C=Cc1cccc(S(=O)(=O)NCCOc2cccc3ccccc23)c1
> 15% | C=Cc1ccc(S(=O)(=O)NC[C@H]2C[C@@H]3O[C@H](COCc4ccccc4)[C@@H](OCc4ccccc4)[C@@H]3O2)cc1
10 to 15% | C=Cc1ccccc1S(=O)(=O)NCCOc1cccc2ccccc12
10 to 15% | C=Cc1cccc(S(=O)(=O)NC[C@@H]2C[C@@H]3O[C@H](CO)[C@@H](OCc4ccccc4)[C@@H]3O2)c1
5 to 10% | C=Cc1cccc(S(=O)(=O)NC[C@H]2C[C@@H]3O[C@H](COCc4ccccc4)[C@@H](OCc4ccccc4)[C@@H]3O2)c1
10 to 15% | C=Cc1cccc(S(=O)(=O)NCCOc2ccc3ccccc3c2)c1
5 to 10% | C=Cc1ccc(S(=O)(=O)NCCNc2ccc3ccccc3c2)cc1
0.5 to 5% | C=CC(=O)NC[C@@H]1C[C@@H]2O[C@H](COCc3ccccc3)[C@@H](OCc3ccccc3)[C@@H]2O1
10 to 15% | C=CS(=O)(=O)NC[C@@H]1C[C@@H]2O[C@H](COCc3ccccc3)[C@@H](OCc3ccccc3)[C@@H]2O1
> 15% | C=Cc1ccccc1S(=O)(=O)NCCNc1cccc2ccccc12
5 to 10% | C=Cc1ccc(S(=O)(=O)NC[C@@H]2C[C@@H]3O[C@H](CO)[C@@H](OCc4ccccc4)[C@@H]3O2)cc1
5 to 10% | C=CS(=O)(=O)NC[C@H]1C[C@@H]2O[C@H](CO)[C@@H](OCc3ccccc3)[C@@H]2O1
0.5 to 5% | C=CC(=O)NC[C@@H]1C[C@@H]2O[C@H](CO)[C@@H](OCc3ccccc3)[C@@H]2O1
10 to 15% | C=Cc1ccccc1S(=O)(=O)NC[C@@H]1C[C@@H]2O[C@H](COCc3ccccc3)[C@@H](OCc3ccccc3)[C@@H]2O1
10 to 15% | C=CS(=O)(=O)NC[C@H]1C[C@@H]2O[C@H](COCc3ccccc3)[C@@H](OCc3ccccc3)[C@@H]2O1
10 to 15% | C=Cc1ccc(S(=O)(=O)NC[C@@H]2C[C@@H]3O[C@H](COCc4ccccc4)[C@@H](OCc4ccccc4)[C@@H]3O2)cc1
